Reference: patent US9999616B2 (ZENITH EPIGENETICS LTD., priority 2013, dated 2018)

How the values were obtained:
[1] = target: Brd4 bromodomain 1 (BRD4(1)) (Homo sapiens, UniProt O60885); experiment: Inhibition of tetra-acetylated histone H4 binding to Brd4 bromodomain 1, measured by FRET (HTRF); parameters: made in house; host or cells: E. coli BL21(DE3); settings: 2 h at room temperature
Outline: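 Inhibition was read as a drop in 665 nm relative to 620 nm HTRF signal after 2 h at room temperature, with IC50 from dose-response curves in duplicate wells. Reactions held 200 nM E. coli-expressed His-tagged bromodomain and 25-50 nM biotinylated tetra-acetylated histone H4 peptide. Buffer was 30 mM HEPES pH 7.4 with KF, CHAPS, BSA and 0.2% DMSO.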

[2] = tested on: hIL-6 mRNA; experiment: Inhibition of hIL-6 mRNA transcription in LPS-stimulated U937 macrophages; format: cell-based, Human; settings: 1 h pretreatment, LPS 3 h; for IC50: Homo sapiens, U-937, PMA-differentiated U937 cells, read-out: IL-6 activity
Method: Human leukemic monocyte lymphoma U937 cells (CRL-1593.2) were plated at a density of 3.2×10^4 cells per well in a 96-well plate in 100 μL RPMI-1640 containing 10% FBS and penicillin/streptomycin, and differentiated into macrophages for 3 days in 60 ng/mL PMA ([…]) at 37° C. in 5% CO2 prior to the addition of compound. The cells were pretreated for 1 h with increasing concentrations of test compound in 0.1% DMSO prior to stimulation with 1 ug/mL lipopolysaccharide from Escherichia coli. Triplicate wells were used for each concentration. The cells were incubated at 37° C., 5% CO2 for 3 h before the cells were harvested. At time of harvest, media was removed and cells were rinsed in 200 μL PBS. Cells were harvested using the mRNA Catcher PLUS kit according to manufacturer's instructions. The eluted mRNA was then used in a one-step quantitative real-time PCR reaction using components of the RNA UltraSense™ One-Step Kit (Life Technologies) together with Applied Biosystems TaqMan® primer-probes for hIL-6 and Cyclophilin. Real-time PCR plates were run on a ViiA™7 real time PCR machine (Applied Biosystems), data was analyzed, normalizing the Ct values for hlL-6 to an internal control, prior to determining the fold expression of each sample, relative to the control.

[3] = tested on: Human AML MV-4-11 cells; experiment: Inhibition of cell proliferation in MV4-11 cells (CellTiter Aqueous One); format: cell-based; settings: for Cell Proliferation activity: 72 h; for IC50: MV4-11, 72 h
Method: MV4-11 cells (CRL-9591) were plated at a density of 5×10^4 cells per well in 96 well flat bottom plates and treated with increasing concentrations of test compound or DMSO (0.1%) in IMDM media containing 10% FBS and penicillin/streptomycin. Triplicate wells were used for each concentration and a well containing only media was used as a control. Plates were incubated at 37° C., 5% CO2 for 72 h before adding 20 µL of the CellTiter Aqueous One Solution (Promega) to each well and incubated at 37° C., 5% CO2 for an additional 3-4 h. The absorbance was read at 490 nm in a spectrophotometer and the percentage of cell titer relative to DMSO-treated cells was calculated after correcting for background by subtracting the blank well's signal. IC50 values were calculated using the GraphPad Prism software.

[4] = tested on: c-myc in Human AML MV4-11 cells; experiment: Inhibition of cMYC expression (mRNA, real-time PCR) in MV4-11 cells; format: cell-based; settings: 3 h treatment, cMYC mRNA by real-time PCR
Method: MV4-11 cells (CRL-9591) were plated at a density of 2.5×10^4 cells per well in 96 well U-bottom plates and treated with increasing concentrations of test compound or DMSO (0.1%) in IMDM media containing 10% FBS and penicillin/streptomycin, and incubated for 3 h at 37′C. Triplicate wells were used for each concentration. Cells were pelleted by centrifugation and harvested using the mRNA Catcher PLUS kit according to manufacturer's instructions. The eluted mRNA isolated was then used in a one-step quantitative real-time PCR reaction, using components of the RNA UltraSense™ One-Step Kit (Life Technologies) together with Applied Biosystems TaqMan® primer-probes for cMYC and Cyclophilin. Real-time PCR plates were run on a ViiA™7 real time PCR machine (Applied Biosystems), data was analyzed, normalizing the Ct values for cMYC to an internal control, prior to determining the fold expression of each sample, relative to the control.

IC50 [1]	IC50 [2]	IC50 [3]	IC50 [4]	Compound	IL-6 activity ([2]; PMA-differentiated U937 cells)	Cell Proliferation activity [3]
≤ 300 nM		300 to 3000 nM	300 to 3000 nM	Cc1noc(C)c1-c1cc(-c2c(C)nn(C)c2C)c2nc(NC3CCN(C)CC3)[nH]c2c1 [Example Compound 185, 6-(3,5-dimethyl-isoxazol-4-yl)-N-(1-methyl-piperidin-4-yl)-4-(1,3,5-trimethyl-1H-pyrazol-4-yl)-1H-benzo[d] imidazol-2-amine]		
≤ 300 nM		≤ 300 nM	≤ 300 nM	CSc1nc2c(-c3c(C)nn(C)c3C)cc(-c3c(C)noc3C)cc2[nH]1 [Example Compound 187, 3,5-dimethyl-4-(2-(methylthio)-4-(1,3,5-trimethyl-1H-pyrazol-4-yl)-1H-benzo[d]imidazol-6-yl)isoxazole]		
300 to 3000 nM		300 to 3000 nM	300 to 3000 nM	CSc1nc2c(-c3c(C)nn(C)c3C)cc(-c3c(C)noc3C)cc2n1C [Example Compound 188, 3,5-dimethyl-4-(1-methyl-2-(methylthio)-4-(1,3,5-trimethyl-1H-pyrazol-4-yl)-1H-benzo[d]imidazol-6-yl)isoxazole]		
≤ 300 nM		≤ 300 nM	300 to 3000 nM	Cc1noc(C)c1-c1cc(-c2c(C)nn(C)c2C)c2nc(NC3CCOCC3)[nH]c2c1 [Example Compound 190, 6-(3,5-dimethyl-isoxazol-4-yl)-N-(tetrahydro-2H-pyran-4-yl)-4-(1,3,5-trimethyl-1H-pyrazol-4-yl)-1H-benzo[d] imidazol-2-amine]		
≤ 300 nM		300 to 3000 nM	300 to 3000 nM	Cc1ccc(C(N)=O)cc1-c1cc(-c2c(C)noc2C)cc2[nH]c(N3CCOCC3)nc12 [Example Compound 197, 3-(6-(3,5-dimethyl-isoxazol-4-yl)-2-morpholino-1H-benzo[d]imidazol-4-yl)-4-methyl benzamide]		
≤ 300 nM		≤ 300 nM	≤ 300 nM	Cc1ccc(C#N)cc1-c1cc(-c2c(C)noc2C)cc2[nH]c(NC3CCOCC3)nc12 [Example Compound 198, 3-(6-(3,5-dimethyl-isoxazol-4-yl)-2-((tetrahydro-2H-pyran-4-yl)amino)-1H-benzo[d]imidazol-4-yl)-4-methyl benzonitrile]		
≤ 300 nM		≤ 300 nM	≤ 300 nM	Cc1ccc(C(N)=O)cc1-c1cc(-c2c(C)noc2C)cc2[nH]c(NC3CCOCC3)nc12 [Example Compound 200, 3-(6-(3,5-dimethyl-isoxazol-4-yl)-2-((tetrahydro-2H-pyran-4-yl)amino)-1H-benzo[d]imidazol-4-yl)-4-methyl benzamide]		
≤ 300 nM	≤ 300 nM			Cc1noc(C)c1-c1cc(-c2cccc(C(N)=O)c2C)c2nc(N3CCOCC3)[nH]c2c1 [Example Compound 208, 3-(6-(3,5-dimethyl-isoxazol-4-yl)-2-morpholino-1H-benzo[d]imidazol-4-yl)-2-methyl benzamide]		
≤ 300 nM	300 to 3000 nM			Cc1ccc(C#N)cc1-c1cc(-c2c(C)noc2C)cc2[nH]c(NCc3cccnc3)nc12 [Example Compound 211, 3-(6-(3,5-dimethyl-isoxazol-4-yl)-2-((pyridin-3-ylmethyl)amino)-1H-benzo[d]imidazol-4-yl)-4-methyl-benzonitrile]		
≤ 300 nM	≤ 300 nM			Cc1noc(C)c1-c1cc(-c2c(C)nn(C)c2C)c2nc(NCc3ccccc3)[nH]c2c1 [Example Compound 212, N-benzyl-6-(3,5-dimethyl-isoxazol-4-yl)-4-(1,3,5-trimethyl-1H-pyrazol-4-yl)-1H-benzo[d] imidazol-2-amine]		
≤ 300 nM	≤ 300 nM			Cc1noc(C)c1-c1cc(-c2c(C)nn(C)c2C)c2nc(N3CCCC3)[nH]c2c1 [Example Compound 213, 3,5-dimethyl-4-(2-(pyrrolidin-1-yl)-4-(1,3,5-trimethyl-1H-pyrazol-4-yl)-1H-benzo[d]imidazol-6-yl)isoxazole]		

More lines, now with the values behind:

Compound	IC50 [1]	IC50 [2]	IC50 [3]	IC50 [4]	IL-6 activity ([2]; PMA-differentiated U937 cells)	Cell Proliferation activity [3]
Cc1noc(C)c1-c1cc(-c2c(C)noc2C)c2nccn2c1 [Example Compound 8, 4,4′-(imidazo [1,2-a]pyridine-6,8-diyl) bis(3,5-dimethylisoxazole)]	300 to 3000 nM				Not active	Not active
Cc1noc(C)c1-c1cc(-c2cncnc2)c2nc[nH]c2c1 [Example Compound 22, 3,5-dimethyl-4-(4-(pyrimidin-5-yl)-1H-benzo[d]imidazol-6-yi)isoxazole]	300 to 3000 nM	300 to 3000 nM				Not active
Cc1noc(C)c1-c1cc(Nc2ncccn2)c2nc[nH]c2c1 [Example Compound 43, 6-(3,5-dimethyl-isoxazol-4-yl)-N-(pyrimidin-2-yl)-1H-benzo[d] imidazol-4-amine]	≤ 300 nM	300 to 3000 nM	3000 to 30000 nM			
Cc1nc2c(-c3ccc4c(c3)OCO4)cc(-c3c(C)noc3C)cc2[nH]1 [Example Compound 103, 4-(4-(benzo[d] [1,3]dioxol-5-yl)-2-methyl-1H-benzo[d]imidazol-6-yl)-3,5-dimethyl isoxazole]	≤ 300 nM		300 to 3000 nM	300 to 3000 nM		
COc1nccc(C)c1-c1cc(-c2c(C)noc2C)cc2[nH]c(C)nc12 [Example Compound 114, 4-(4-(2-methoxy-4-methyl-pyridin-3-yl)-2-methyl-1H-benzo[d]imidazol-6-yl)-3,5-dimethyl isoxazole]	300 to 3000 nM	≤ 300 nM				
Cc1nc2c(N3C(=O)CCC3C)cc(-c3c(C)noc3C)cc2[nH]1 (stereo not shown) [Example Compound 121, 1-(6-(3,5-dimethylisoxazol-4-yl)-2-methyl-1H-benzo[d]imidazol-4-yl)-5-methylpyrrolidin-2-one]	300 to 3000 nM	300 to 3000 nM				Not active
Cc1nc2c(-c3cncc(F)c3C)cc(-c3c(C)noc3C)cc2[nH]1 [Example Compound 125, 4-(4-(5-fluoro-4-methyl-pyridin-3-yl)-2-methyl-1H-benzo[d]imidazol-6-yl)-3,5-dimethyl isoxazole]	≤ 300 nM		300 to 3000 nM	300 to 3000 nM		
Cc1nc2c(-c3cccc(C(N)=O)c3C)cc(-c3c(C)noc3C)cc2[nH]1 [Example Compound 126, 3-(6-(3,5-dimethylisoxazol-4-yl)-2-methyl-1H-benzo[d]imidazol-4-yl)-2-methylbenzamide]	≤ 300 nM		300 to 3000 nM	≤ 300 nM		
Cc1nc2c(-c3cccc(S(C)(=O)=O)c3)cc(-c3c(C)noc3C)cc2[nH]1 [Example Compound 154, 3,5-dimethyl-4-(2-methyl-4-(3-(methyl-sulfonyl)phenyl)-1H-benzo[d]imidazol-6-yl)isoxazole]	≤ 300 nM	≤ 300 nM	300 to 3000 nM			
Cc1nc2c(/C=C/c3ccccc3)cc(-c3c(C)noc3C)cc2[nH]1 [Example Compound 158, (E)-3,5-dimethyl-4-(2-methyl-4-styryl-1H-benzo[d]imidazol-6-yl)isoxazole]	≤ 300 nM	300 to 3000 nM	300 to 3000 nM			
Cc1noc(C)c1-c1cc(-c2c(C)nn(C)c2C)c2nc(N3CCOCC3)[nH]c2c1 [Example Compound 184, 4-(6-(3,5-dimethyl-isoxazol-4-yl)-4-(1,3,5-trimethyl-1H-pyrazol-4-yl)-1H-benzo[d]imidazol-2-yl)morpholine]	≤ 300 nM		≤ 300 nM	≤ 300 nM		
